The nature of data set [1]: Solubility of favipiravir in supercritical CO2. It counts as physicochemical.
The format of data set [2] is physicochemical. As to conditions: binary system favipiravir-SC-CO2, from model.
For data set [3] the following is noted: high permeability, low water solubility; cited from earlier work.
For data set [4] the following is noted: cited from earlier work.
Setting [5] is: SC-CO2, 18.3–33.5 MPa, 308–328 K.
Setting [6] is: SC-CO2, 12.16–35.46 MPa, 308–348 K.

Structures can show the parent of a compound that is named as a salt. Where two headings read alike, the source gives them in different places.

As for `NC(=O)c1nc(F)c[nH]c1=O` [Favipiravir], the “y2 × 10^4 (Mole Fraction)” value in data set [1] (SC-CO2, 308 K, 12 MPa, density 768.42 kg/m^3) was determined as 0.53 mole fraction × 10^4; in data set [1] (SC-CO2, 308 K, 15 MPa, density 816.06 kg/m^3) it was 0.87 mole fraction × 10^4; in data set [1] (SC-CO2, 308 K, 18 MPa, density 848.87 kg/m^3), 1.44 mole fraction × 10^4; in data set [1] (SC-CO2, 308 K, 21 MPa, density 874.40 kg/m^3), 2.31 mole fraction × 10^4; in data set [1] (SC-CO2, 308 K, 24 MPa, density 895.54 kg/m^3) it was 3.42 mole fraction × 10^4; in data set [1] (SC-CO2, 308 K, 27 MPa, density 913.69 kg/m^3), 4.09 mole fraction × 10^4. Also, the “y2 × 10^4 (Mole Fraction)” value in data set [1] (SC-CO2, 308 K, 30 MPa, density 929.68 kg/m^3) came out at 5.13 mole fraction × 10^4; in data set [1] (SC-CO2, 318 K, 12 MPa, density 659.73 kg/m^3) it was 0.37 mole fraction × 10^4; in data set [1] (SC-CO2, 318 K, 15 MPa, density 743.17 kg/m^3), 0.80 mole fraction × 10^4; in data set [1] (SC-CO2, 318 K, 18 MPa, density 790.18 kg/m^3) it was 1.30 mole fraction × 10^4; in data set [1] (SC-CO2, 318 K, 21 MPa, density 823.70 kg/m^3), 2.72 mole fraction × 10^4; in data set [1] (SC-CO2, 318 K, 24 MPa, density 850.10 kg/m^3), 4.29 mole fraction × 10^4. The “y2 × 10^4 (Mole Fraction)” value in data set [1] (SC-CO2, 318 K, 27 MPa, density 872.04 kg/m^3) worked out at 5.41 mole fraction × 10^4; in data set [1] (SC-CO2, 318 K, 30 MPa, density 890.92 kg/m^3) it was 6.48 mole fraction × 10^4; in data set [1] (SC-CO2, 328 K, 12 MPa, density 506.85 kg/m^3), 0.08 mole fraction × 10^4; in data set [1] (SC-CO2, 328 K, 15 MPa, density 654.94 kg/m^3), 0.60 mole fraction × 10^4; in data set [1] (SC-CO2, 328 K, 18 MPa, density 724.13 kg/m^3), 1.39 mole fraction × 10^4; in data set [1] (SC-CO2, 328 K, 21 MPa, density 768.74 kg/m^3), 3.21 mole fraction × 10^4. For the same molecule, the “y2 × 10^4 (Mole Fraction)” value in data set [1] (SC-CO2, 328 K, 24 MPa, density 801.92 kg/m^3) stood at 4.75 mole fraction × 10^4; in data set [1] (SC-CO2, 328 K, 27 MPa, density 828.51 kg/m^3), 6.58 mole fraction × 10^4; in data set [1] (SC-CO2, 328 K, 30 MPa, density 850.83 kg/m^3) it was 7.65 mole fraction × 10^4; in data set [1] (SC-CO2, 338 K, 12 MPa, density 384.17 kg/m^3) it was 0.03 mole fraction × 10^4; in data set [1] (SC-CO2, 338 K, 15 MPa, density 555.23 kg/m^3), 0.37 mole fraction × 10^4; in data set [1] (SC-CO2, 338 K, 18 MPa, density 651.18 kg/m^3), 1.32 mole fraction × 10^4. Moreover, the “y2 × 10^4 (Mole Fraction)” value came to 3.92 mole fraction × 10^4 in data set [1] (SC-CO2, 338 K, 21 MPa, density 709.69 kg/m^3); 5.6 mole fraction × 10^4 in data set [1] (SC-CO2, 338 K, 24 MPa, density 751.17 kg/m^3); 7.57 mole fraction × 10^4 in data set [1] (SC-CO2, 338 K, 27 MPa, density 783.29 kg/m^3); 9.05 mole fraction × 10^4 in data set [1] (SC-CO2, 338 K, 30 MPa, density 809.58 kg/m^3). Besides, the “total heat (ΔHtotal)” value in data set [2] worked out at 70.09 kJ/mol. In addition, in data set [2], the “vaporization heat (ΔHvap)” value came to 90.12 kJ/mol. For the same molecule, the “class in the Biopharmaceutics Classification System (BCS)” value in data set [3] is “class II”.
In the case of `C[C@]12C/C(=C/O)C(=O)C[C@@H]1CC[C@@H]1[C@@H]2CC[C@@]2(C)[C@H]1CC[C@]2(C)O` [Oxymetholone], in data set [4] (setting [5]), the “Crossover (MPa)” value was 18 MPa and the “Mole fraction (y)” value is listed as 1.6 × 10^−5 to 1.49 × 10^−4.
Regarding `CC(C)c1nc(N(C)S(C)(=O)=O)nc(-c2ccc(F)cc2)c1/C=C/[C@@H](O)C[C@@H](O)CC(=O)O` [Rosuvastatin], in data set [4] (setting [6]), the “Crossover (MPa)” value was 17 MPa and the “Mole fraction (y)” value was 3 × 10^−6 to 2.44 × 10^−4.
Regarding `CCC(C)(C)C(=O)O[C@H]1C[C@@H](C)C=C2C=C[C@H](C)[C@H](CC[C@@H]3C[C@@H](O)CC(=O)O3)[C@H]21` [Simvastatin], in data set [4] (setting [6]), the “Crossover (MPa)” value is reported as 17 MPa and the “Mole fraction (y)” value was 2 × 10^−6 to 5.35 × 10^−4.
Turning to `CNC(=O)c1cc(Oc2ccc(NC(=O)Nc3ccc(Cl)c(C(F)(F)F)c3)cc2)ccn1` [Sorafenib tosylate], the “Mole fraction (y)” value in data set [4] (SC-CO2, 12–27 MPa, 308–338 K) was 0.68 × 10^−6 to 12.57 × 10^−6.
Turning to `CCN(CC)CCNC(=O)c1c(C)[nH]c(/C=C2\C(=O)Nc3ccc(F)cc32)c1C` [Sunitinib malate], the “Mole fraction (y)” value in data set [4] (SC-CO2, 12–27 MPa, 308–338 K) is on record as 0.5 × 10^−5 to 8.56 × 10^−5.
With `Cc1ccc(C(=O)c2ccc(CC(=O)O)n2C)cc1` [Tolmetin], in data set [4] (SC-CO2, 12–40 MPa, 308–338 K), the “Crossover (MPa)” value is on record as 16 MPa and the “Mole fraction (y)” value is reported as 5.00 × 10^−5 to 2.59 × 10^−3.
`Nc1nc(N)c2nc(-c3ccccc3)c(N)nc2n1` [Triamterene, 2,4,7-Triamino-6-phenylpteridine]: in data set [4] (SC-CO2, 12–27 MPa, 308–338 K), the “Crossover (MPa)” value is reported as 19.2–19.5 MPa and the “Mole fraction (y)” value is on record as 0.03 × 10^−5 to 2.89 × 10^−5.
